Source: ChEMBL document CHEMBL1201862, “PubChem BioAssay data set” (2004)
Activity calls are given as the source filed them.

What was measured:
Cytochrome P450 2C9 [1] = biological target: T1, Cytochrome P450 2C9 (Homo sapiens, UniProt P11712)
[2] = biological target: T2, Serine/threonine-protein phosphatase (Candida dubliniensis (strain CD36 / CBS 7987 / NCPF 3949 / NRRLY-17841) (Yeast), UniProt B9W6M3); experiment: blockers of CaCl2-induced CDRE-lacZ signaling – S. cerevisiae, luminescence, secondary, dose response (AID 2388); assay type: functional, cell-based;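 further: yeast reporter cells carrying a calcineurin-responsive lacZ construct stimulated with calcium chloride; luminescent beta-galactosidase reporter signal in whole cells rather than isolated phosphatase activity; potency for inhibition where a drop in reporter signal means calcineurin blockade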
T2 sequence (B9W6M3 whole entry): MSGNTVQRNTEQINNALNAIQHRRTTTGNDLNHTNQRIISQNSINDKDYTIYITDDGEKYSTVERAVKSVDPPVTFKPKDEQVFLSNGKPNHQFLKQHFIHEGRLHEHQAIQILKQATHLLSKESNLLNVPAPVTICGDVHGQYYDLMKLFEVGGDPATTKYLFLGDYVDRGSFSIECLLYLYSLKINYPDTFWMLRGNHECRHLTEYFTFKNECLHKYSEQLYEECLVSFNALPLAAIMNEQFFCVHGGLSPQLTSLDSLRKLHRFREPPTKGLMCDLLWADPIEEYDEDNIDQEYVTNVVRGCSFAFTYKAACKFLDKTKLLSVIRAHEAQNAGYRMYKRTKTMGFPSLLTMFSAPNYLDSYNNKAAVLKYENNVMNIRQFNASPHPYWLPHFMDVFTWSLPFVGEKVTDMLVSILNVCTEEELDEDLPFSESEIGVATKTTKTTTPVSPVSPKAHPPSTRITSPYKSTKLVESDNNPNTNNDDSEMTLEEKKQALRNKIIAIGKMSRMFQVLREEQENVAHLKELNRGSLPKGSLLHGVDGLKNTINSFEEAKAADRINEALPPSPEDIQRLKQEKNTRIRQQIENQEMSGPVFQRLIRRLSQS

[3] = biological target: ATP-dependent molecular chaperone HSP82 (Candida albicans (strain WO-1) (Yeast), UniProt C4YTQ8); experiment: steroid-induced GRE reporter decrease in yeast – S. cerevisiae, luminescence, Hsp90 inhibitor project, dose response (AID 2400); assay type: functional, cell-based;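 further: beta-galactosidase luminescence from glucocorticoid response element reporter as proxy for Hsp90 function; inhibitor potency where signal loss means Hsp90 inhibition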
Sequence of ATP-dependent molecular chaperone HSP82 (C4YTQ8 whole entry): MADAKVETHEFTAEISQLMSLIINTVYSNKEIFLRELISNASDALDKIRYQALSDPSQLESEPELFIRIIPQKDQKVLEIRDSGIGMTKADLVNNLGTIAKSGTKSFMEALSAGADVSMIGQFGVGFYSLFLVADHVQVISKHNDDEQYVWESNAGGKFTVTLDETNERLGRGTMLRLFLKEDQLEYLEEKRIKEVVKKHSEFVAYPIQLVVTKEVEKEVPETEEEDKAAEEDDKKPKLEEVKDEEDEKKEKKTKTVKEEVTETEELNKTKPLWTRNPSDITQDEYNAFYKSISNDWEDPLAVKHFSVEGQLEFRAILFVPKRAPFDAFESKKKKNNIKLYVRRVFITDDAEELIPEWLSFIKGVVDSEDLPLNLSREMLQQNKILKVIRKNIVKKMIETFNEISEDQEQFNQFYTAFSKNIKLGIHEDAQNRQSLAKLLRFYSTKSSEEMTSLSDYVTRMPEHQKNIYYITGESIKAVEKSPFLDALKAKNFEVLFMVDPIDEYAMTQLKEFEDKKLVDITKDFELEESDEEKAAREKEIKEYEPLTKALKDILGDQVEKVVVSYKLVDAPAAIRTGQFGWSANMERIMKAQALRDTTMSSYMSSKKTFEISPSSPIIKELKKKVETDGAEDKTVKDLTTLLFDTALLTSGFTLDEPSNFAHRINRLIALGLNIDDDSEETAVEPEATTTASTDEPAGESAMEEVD

[4] = fluconazole-exposed Candida albicans growth modulators – fluorescence, retest, confirmation (AID 2467); assay type: functional, cell-based
[5] = NIH-3T3 fibroblast cytotoxicity, dose response, cytotoxicity control, cell-based, fluorescence, Alamar Blue, secondary assay (AID 2327); assay type: functional;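 further: NIH-3T3 mouse fibroblasts cultured with fluconazole at 8 µg/mL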
[6] = biological target: T3, Polyadenylate-binding protein 1 (Homo sapiens, UniProt P11940); experiment: MLLE domain peptide-binding blockers, IC50 – biochemical, fluorescence polarization, FITC-PAM2 peptide, dose response (AID 602259); assay type: functional; details: read-out: IC50_Mean
T3 sequence (P11940 whole entry, the tested form may be a part): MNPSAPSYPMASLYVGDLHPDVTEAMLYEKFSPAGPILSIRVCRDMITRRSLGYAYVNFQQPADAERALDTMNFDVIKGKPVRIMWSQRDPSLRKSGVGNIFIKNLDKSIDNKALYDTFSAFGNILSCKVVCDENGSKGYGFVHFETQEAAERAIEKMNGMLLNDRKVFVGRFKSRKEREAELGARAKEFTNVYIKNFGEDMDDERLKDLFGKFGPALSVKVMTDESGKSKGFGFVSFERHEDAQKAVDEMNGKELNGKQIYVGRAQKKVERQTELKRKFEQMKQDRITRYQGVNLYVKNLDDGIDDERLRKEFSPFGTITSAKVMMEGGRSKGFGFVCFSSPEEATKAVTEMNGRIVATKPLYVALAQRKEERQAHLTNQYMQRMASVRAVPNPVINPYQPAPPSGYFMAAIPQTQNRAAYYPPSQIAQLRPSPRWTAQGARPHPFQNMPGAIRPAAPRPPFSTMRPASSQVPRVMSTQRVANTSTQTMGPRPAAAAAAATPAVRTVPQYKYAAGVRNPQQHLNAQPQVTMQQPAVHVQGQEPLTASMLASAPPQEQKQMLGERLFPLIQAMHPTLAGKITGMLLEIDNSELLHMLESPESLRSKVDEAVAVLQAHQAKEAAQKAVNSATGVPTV

[7] = biological target: T3, Polyadenylate-binding protein 1; experiment: MLLE binding blockers, Cy5 peptide tracer – biochemical, fluorescence polarization, Cy5-PAM2 peptide, secondary, miRNA deadenylation inhibitor project, dose response (AID 602260); assay type: functional; details: read-out: IC50_Mean
Escherichia coli = experiment: microbe, parasite or virus in culture
Vero [8] = experiment: cells; assay type: functional, cell-based; details: Chlorocebus sabaeus
Nonstructural protein 1 = Nonstructural protein 1 (Influenza A virus, UniProt Q194T2); assay type: functional, Influenza A virus (A/California/07/2009(H1N1))
Sequence of Nonstructural protein 1 (Q194T2 whole entry): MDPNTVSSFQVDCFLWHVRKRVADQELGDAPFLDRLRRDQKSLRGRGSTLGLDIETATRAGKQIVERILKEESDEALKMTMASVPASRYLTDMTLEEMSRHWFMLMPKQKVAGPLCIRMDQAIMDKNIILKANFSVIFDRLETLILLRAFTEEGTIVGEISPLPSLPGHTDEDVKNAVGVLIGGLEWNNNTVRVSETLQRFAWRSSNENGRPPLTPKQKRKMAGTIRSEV

Cytochrome P450 3A4 = Cytochrome P450 3A4 (Homo sapiens, UniProt P08684);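 further: CYP3A4 tested as one member of a cytochrome P450 panel screen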
Sequence of Cytochrome P450 3A4 (P08684 whole entry): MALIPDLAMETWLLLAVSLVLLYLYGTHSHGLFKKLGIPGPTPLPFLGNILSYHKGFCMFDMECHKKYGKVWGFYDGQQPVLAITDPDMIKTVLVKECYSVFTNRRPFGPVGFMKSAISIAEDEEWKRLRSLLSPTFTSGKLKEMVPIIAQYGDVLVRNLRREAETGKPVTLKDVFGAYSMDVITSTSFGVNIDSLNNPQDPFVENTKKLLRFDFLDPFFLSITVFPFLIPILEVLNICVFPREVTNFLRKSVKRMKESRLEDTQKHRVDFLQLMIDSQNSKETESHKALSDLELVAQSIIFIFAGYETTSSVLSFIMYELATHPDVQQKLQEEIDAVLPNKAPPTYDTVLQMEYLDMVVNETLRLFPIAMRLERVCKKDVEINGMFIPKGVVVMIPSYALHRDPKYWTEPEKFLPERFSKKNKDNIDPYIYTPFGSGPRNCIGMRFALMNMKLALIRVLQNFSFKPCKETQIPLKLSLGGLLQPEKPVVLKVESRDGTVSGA

[9] = luciferase reporter signal suppression in cells – H4 neuroglioma cells, luminescence, dose response (AID 1990); assay type: functional, cell-based
[10] = alpha-synuclein stem-loop luciferase translation blockers – H4 neuroglioma cells, luminescence, confirmation (AID 1988); assay type: functional, cell-based
[11] = DRD fibroblast viability loss – cell-based, non-viral oncogenic, luminescence, dose response (AID 1934); assay type: functional; details: Homo sapiens
BJ [12] = experiment: cells; assay type: functional, cell-based; details: Homo sapiens
[13] = Luminescence Cell-Based Dose Response HTS to Identify Inhibitors of 5'UTR Stem-Loop Driven Prion Protein mRNA Translation in H4 Neuroglioblastoma Cells. [Related pubchem assays: 1827 (Project Summary), 1813 (Primary HTS)]; assay type: functional
BJ [14] = experiment: BJ-TERT fibroblast viability loss – cell-based, RAS-independent, luminescence, dose response (AID 1933); assay type: functional; details: Homo sapiens
BJ [15] = experiment: BJ-TERT-LT-ST fibroblast viability loss – cell-based, RAS-independent, luminescence, dose response (AID 1935); assay type: functional; details: Homo sapiens;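 further: BJ fibroblasts immortalized with TERT plus LT and ST oncogenes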
Cytochrome P450 2D6 = Cytochrome P450 2D6 (Homo sapiens, UniProt P10635);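 further: CYP2D6 member of a cytochrome P450 panel assay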
Sequence of Cytochrome P450 2D6 (P10635 whole entry): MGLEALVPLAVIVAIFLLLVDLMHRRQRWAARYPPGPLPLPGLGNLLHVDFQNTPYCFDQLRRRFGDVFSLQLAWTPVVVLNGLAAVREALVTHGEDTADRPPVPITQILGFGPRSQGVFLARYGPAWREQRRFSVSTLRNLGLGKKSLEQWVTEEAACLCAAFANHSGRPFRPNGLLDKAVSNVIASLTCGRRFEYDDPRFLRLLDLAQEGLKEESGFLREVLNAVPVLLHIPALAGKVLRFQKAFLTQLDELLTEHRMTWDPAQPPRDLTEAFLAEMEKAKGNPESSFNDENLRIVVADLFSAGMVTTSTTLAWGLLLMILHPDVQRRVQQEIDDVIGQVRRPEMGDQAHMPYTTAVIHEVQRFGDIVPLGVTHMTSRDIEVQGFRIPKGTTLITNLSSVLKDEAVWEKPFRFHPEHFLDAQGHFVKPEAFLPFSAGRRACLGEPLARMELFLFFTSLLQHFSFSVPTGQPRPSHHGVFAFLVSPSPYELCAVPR

[16] = NIH3T3 cell viability loss – ATP luminescence, mouse fibroblasts, counter-screen, dose response (AID 2010); assay type: functional, cell-based;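 further: cells exposed to compound for about 90 hours before reading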
Vero [17] = experiment: cells; assay type: functional; details: Chlorocebus sabaeus
[18] = Trypanosoma cruzi growth suppression in host cells – NIH3T3 host cells, beta-gal luminescence, confirmation (AID 2044); assay type: functional, cell-based;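 further: intracellular parasites grown in NIH/3T3 mouse fibroblasts as host cells; luminescent beta-galactosidase reporter signal from transgenic T. cruzi replicating inside host cells; inhibitors lower the luminescence signal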
INS1 = experiment: INS-1E survival protection against cytokine death – cell-based, luminescence, retest, dose response (AID 449756); assay type: functional; details: Rattus norvegicus;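 further: cell death triggered by IL-1 beta plus TNF-alpha plus IFN-gamma mixture; protective hits raise ATP signal compared with cytokine alone wells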
Cytochrome P450 2C9 [19] = biological target: T1, Cytochrome P450 2C9; remark: listed apart in the source
Cytochrome P450 2C19 = Cytochrome P450 2C19 (Homo sapiens, UniProt P33261); experiment: Cytochrome panel assay with activity outcomes. Panel member name: p450-cyp2c19 Compounds with AC50 equal or less than 10 uM are considered active; assay type: functional; details: read-out: AC50
Sequence of Cytochrome P450 2C19 (P33261 whole entry): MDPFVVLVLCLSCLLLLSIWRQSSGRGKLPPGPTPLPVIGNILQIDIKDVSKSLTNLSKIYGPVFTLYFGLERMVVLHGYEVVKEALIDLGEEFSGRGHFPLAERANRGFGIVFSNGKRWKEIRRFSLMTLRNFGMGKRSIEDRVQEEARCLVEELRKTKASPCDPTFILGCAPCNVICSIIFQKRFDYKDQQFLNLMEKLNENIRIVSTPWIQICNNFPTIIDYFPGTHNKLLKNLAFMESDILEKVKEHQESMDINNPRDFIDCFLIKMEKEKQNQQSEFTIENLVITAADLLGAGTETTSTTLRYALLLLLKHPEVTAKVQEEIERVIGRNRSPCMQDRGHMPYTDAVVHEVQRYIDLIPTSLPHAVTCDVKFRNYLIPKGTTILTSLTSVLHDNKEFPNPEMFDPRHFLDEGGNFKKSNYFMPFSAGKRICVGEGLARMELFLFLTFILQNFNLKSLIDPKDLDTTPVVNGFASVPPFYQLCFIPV

[20] = biological target: T4, Corticotropin-releasing factor receptor 2/Corticotropin-releasing factor-binding protein (Homo sapiens, UniProt P24387+Q13324); experiment: Dose Response confirmation of uHTS hits for small molecule antagonists of the CRF-binding protein and CRF-R2 receptor complex.; assay type: functional; details: read-out: IC50_Mean
T4 sequence (Q13324 whole entry): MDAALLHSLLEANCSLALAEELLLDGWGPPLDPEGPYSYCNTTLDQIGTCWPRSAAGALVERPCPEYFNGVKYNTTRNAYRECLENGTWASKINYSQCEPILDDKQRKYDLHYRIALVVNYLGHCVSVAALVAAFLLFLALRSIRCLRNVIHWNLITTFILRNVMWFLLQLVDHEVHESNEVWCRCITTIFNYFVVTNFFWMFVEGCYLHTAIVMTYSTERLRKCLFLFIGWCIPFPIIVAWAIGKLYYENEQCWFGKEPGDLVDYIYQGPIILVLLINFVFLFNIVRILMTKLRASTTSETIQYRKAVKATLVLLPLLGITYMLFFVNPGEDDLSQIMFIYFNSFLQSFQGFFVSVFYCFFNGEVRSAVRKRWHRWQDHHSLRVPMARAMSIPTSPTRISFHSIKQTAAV
T4 sequence (P24387 whole entry): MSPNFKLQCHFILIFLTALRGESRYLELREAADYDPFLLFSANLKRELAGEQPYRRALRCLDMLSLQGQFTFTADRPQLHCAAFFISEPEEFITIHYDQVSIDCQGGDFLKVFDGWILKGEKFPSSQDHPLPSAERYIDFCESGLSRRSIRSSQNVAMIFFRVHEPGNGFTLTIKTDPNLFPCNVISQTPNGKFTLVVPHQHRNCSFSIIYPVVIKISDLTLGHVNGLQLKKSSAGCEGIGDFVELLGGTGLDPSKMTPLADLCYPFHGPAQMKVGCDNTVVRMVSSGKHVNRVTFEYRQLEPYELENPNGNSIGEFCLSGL

[21] = biological target: T4, Corticotropin-releasing factor receptor 2/Corticotropin-releasing factor-binding protein; experiment: activators of CRF receptor 2 with binding protein – uHTS hits, confirmation (AID 602473); assay type: functional; details: read-out: EC50_Mean
cells = assay type: functional
[22] = microbe, parasite or virus in culture; assay type: functional; details: Mycobacterium tuberculosis
[23] = HepG2 cell cytotoxicity, dose response, cytotoxicity control for non-replicating M. tuberculosis project (AID 489018); assay type: functional; details: Mycobacterium tuberculosis
[24] = THP-1 cell cytotoxicity, dose response, cytotoxicity control for non-replicating M. tuberculosis project (AID 489025); assay type: functional

T1 sequence (P11712 whole entry): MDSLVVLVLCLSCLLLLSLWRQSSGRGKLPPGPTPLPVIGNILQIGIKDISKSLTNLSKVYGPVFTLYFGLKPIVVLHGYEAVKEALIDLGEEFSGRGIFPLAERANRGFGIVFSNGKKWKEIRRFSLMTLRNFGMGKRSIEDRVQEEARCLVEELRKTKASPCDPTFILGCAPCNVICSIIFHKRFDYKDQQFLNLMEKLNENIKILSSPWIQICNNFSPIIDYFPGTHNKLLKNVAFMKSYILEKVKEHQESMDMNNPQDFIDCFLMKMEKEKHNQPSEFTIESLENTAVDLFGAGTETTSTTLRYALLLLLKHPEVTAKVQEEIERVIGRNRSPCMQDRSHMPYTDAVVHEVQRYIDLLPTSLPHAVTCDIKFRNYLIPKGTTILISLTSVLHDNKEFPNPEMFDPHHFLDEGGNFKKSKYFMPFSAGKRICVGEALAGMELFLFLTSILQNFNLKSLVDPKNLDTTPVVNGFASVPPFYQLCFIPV

With `CCCCCCCCCCCCCCCCCC(=O)O[C@H](CC(=O)O)C[N+](C)(C)C` the AC50 (Cytochrome P450 2C9 [1]) was “inconclusive”.

With `CCCCc1c(O)n(-c2ccccc2OC)c(SCC(=O)Nc2cccc3ccccc23)nc1=O` the EC50 [2] was > 180 µM (inactive), the EC50 [3] was > 160 µM (inactive) and the EC50 [4] was 2.03 µM (active). The EC50 [5] was > 160 µM (inconclusive), the IC50 [6] was > 66 µM (inactive) and the IC50 [7] was > 66 µM (inactive).

With `CC(=O)NC1=NN(C(C)=O)C2(S1)C(=O)N(C(C)C)c1ccc(C)cc12` (stereo not drawn) the AC50 (Escherichia coli) was > 150 µM (inactive).

With `COCCNCC(=O)NC12CC3CC(CC(C3)C1)C2` the IC50 (Vero [8]) was 16.2 µM (active).

In the case of `COc1cccc(NC(=O)c2cccc(C(=O)Nc3cccc(OC)c3)n2)c1`, the AC50 (Escherichia coli) is reported as 32.4 µM (active).

For `NC(=O)C1CCN(c2oc(-c3ccccc3)nc2S(=O)(=O)c2ccc(Br)cc2)CC1`, the IC50 (Nonstructural protein 1) was > 100 µM (active).

With `CC1CCN(C2=C(NS(=O)(=O)c3ccc(Br)cc3)C(=O)c3ccccc3C2=O)CC1` the IC50 (Nonstructural protein 1) was 10.8 µM (active).

For `O=C(O)C1CCC(=O)N(C2CC2)C1c1ccccc1` (stereo not drawn), the AC50 (Cytochrome P450 3A4) was “inconclusive”.

In the case of `CN(C)c1ncc2nc(-c3ccc(F)cc3)c(=O)n(Cc3ccc(F)cc3)c2n1`, the AC50 (Cytochrome P450 3A4) is reported as “inconclusive” and the AC50 (Cytochrome P450 2C9 [1]) is reported as “inconclusive”.

In the case of `O=S(=O)(c1ccccc1)N1CCC2(CCN(C(c3ccccc3)c3ccccc3)CC2)CC1`, the AC50 (Cytochrome P450 3A4) is reported as “inconclusive”.

With `CCOC(=O)C1C(=O)C=C(c2ccc(C)cc2)CC1c1ccco1` (stereo not drawn) the AC50 (Cytochrome P450 3A4) was “inconclusive”.

With `Cn1c(=O)c2c(nc(NN/C=C3/C(=O)NC(=S)N(c4ccccc4)C3=O)n2C)n(C)c1=O` the IC50 (Nonstructural protein 1) was 20.9 µM (active).

For `CN1CCN(c2ccc([N+](=O)[O-])cc2C(=O)c2ccc(Br)cc2)CC1`, the EC50 [9] was 11.6 µM (active), the EC50 [10] was 4.21 µM (active) and the EC50 [11] was 4.11 µM (active). For the same molecule, the EC50 (BJ [12]) was 28.9 µM (active), the EC50 [13] was 12.6 µM (active) and the EC50 (BJ [14]) was 4.96 µM (active). The EC50 (BJ [15]) was 5.07 µM (inconclusive).

With `COc1ccccc1NC(=O)CN1CCC(C(=O)c2ccc(F)cc2)CC1` the AC50 (Cytochrome P450 2D6) was 25.1 µM (inconclusive) and the AC50 (Cytochrome P450 2C9 [1]) was “inconclusive”.

For `Cc1cc(C(=O)OCC(=O)NCc2ccco2)c(C)n1-c1ccc(F)cc1`, the EC50 [9] was > 120 µM (not active), the EC50 [10] was 4.93 µM (active) and the EC50 [11] was 16.7 µM (active). For the same molecule, the EC50 (BJ [12]) was 36 µM (active), the EC50 [13] was 9.52 µM (active) and the EC50 (BJ [14]) was 9.71 µM (inconclusive). For the same molecule, the EC50 (BJ [15]) was 4.61 µM (active).

With `CCCCc1ccc(NC(=N)Nc2nc(C)cc(C)n2)cc1` the EC50 [16] was 9.01 µM (active), the CC50 (Vero [17]) was 7.63 µM (active) and the EC50 [18] was 1.71 µM (active). The AC50 (INS1) was 4.27 µM (active).

For `Cc1ccc(S(=O)(=O)Oc2ccc(/C=C(/NC(=O)c3ccccc3)C(=O)Nc3ccccc3)cc2)cc1`, the AC50 (Cytochrome P450 2C9 [19]) was 0.316 µM (inconclusive), the AC50 (Cytochrome P450 2C19) was 0.316 µM (inconclusive) and the AC50 (Cytochrome P450 3A4) was “inconclusive”.

In the case of `CC1C(=O)C(C)C(c2ccc(Br)cc2)NC1c1ccc(Br)cc1` (stereo not drawn), the EC50 [16] is reported as > 60 µM (not active), the CC50 (Vero [17]) is reported as > 25 µM (active) and the EC50 [18] is reported as 1.11 µM (active).

With `C=CCn1c(N)nc2ccccc21` the EC50 [2] was > 180 µM (inactive), the EC50 [3] was > 160 µM (inactive) and the EC50 [4] was 1.55 µM (active). The EC50 [5] was > 160 µM (inactive).

In the case of `C=CCc1cccc2cc(C(=O)N(CC)CC)c(=O)oc12`, the AC50 (Cytochrome P450 2C19) is reported as 28.2 µM (inconclusive) and the AC50 (Cytochrome P450 2C9 [1]) is reported as “inconclusive”.

With `c1ccc(COc2nsnc2N2CCOCC2)cc1` the IC50 (Nonstructural protein 1) was > 100 µM (active).

In the case of `CCOC(=O)c1c(NC(=O)c2c(-c3ccccc3)noc2C)sc(C)c1-c1ccccc1`, the EC50 [16] is reported as 12.5 µM (active), the IC50 (Vero [8]) is reported as < 0.05 µM (active) and the EC50 [18] is reported as 0.805 µM (active).

In the case of `O=C(CCCc1ccccc1)N1CCN(c2ccc([N+](=O)[O-])cc2)CC1`, the IC50 [20] is reported as > 47.1 µM (inactive), the AC50 (Cytochrome P450 3A4) is reported as “inconclusive” and the EC50 [21] is reported as > 53 µM (inactive).

For `O=S(=O)(c1ccc(Cl)cc1)N1CCN(C(=S)Nc2ccc(F)c(Cl)c2)CC1`, the CC50 (Vero [17]) was > 25 µM (active) and the IC50 (Vero [8]) was > 25 µM (active).

For `CC1=NN(C(=O)c2ccc(Br)cc2)C(O)(c2ccccc2)C1` (stereo not drawn), the IC50 (cells) was 22.4 µM (active), the CC50 [22] was > 40 µM (active) and the CC50 [23] was > 20 µM (active). For the same molecule, the CC50 [24] was 22.1 µM (active).

For `C=CC/N=c1/scc(-c2ccccc2)n1/N=C/c1ccccn1`, the IC50 (Vero [8]) was 0.98 µM (active).

In the case of `CCCNc1nc(NCC)nc(OC)n1`, the AC50 (Cytochrome P450 2C19) is reported as 17.8 µM (inconclusive) and the AC50 (Cytochrome P450 2C9 [1]) is reported as “inconclusive”.

For `O=C1CN(S(=O)(=O)c2ccccc2C(F)(F)F)CCN1`, the AC50 (Escherichia coli) was 28.5 µM (active).

In the case of `O=C(c1ccc([N+](=O)[O-])o1)N1CCc2ccccc21`, the CC50 (Vero [17]) is reported as > 25 µM (active).
